Our source for the IC50 and EC50 values is ChEMBL document CHEMBL1129284, “N-methyl-D-aspartic acid receptor agonists: resolution, absolute stereochemistry, and pharmacology of the enantiomers of 2-amino-2-(3-hydroxy-5-methyl-4-isoxazolyl)acetic acid” (J Med Chem, 1996).

The target of assay [1] is Glutamate receptor ionotropic, kainate. As to the kind of experiment: Inhibitory activity against Ionotropic glutamate receptor kainate using [3H]-kainic acid as radioligand. The class given is protein-complex assay.
The species entered for assay [2] is Rattus norvegicus. Nature of the assay: Effective dose against rat cortical slice cells using Electrophysiological experiment. Format: functional. The following applies: read-out: ED50 (the source's name).
Assay [3] has as its target Glutamate receptor ionotropic, AMPA (Rattus norvegicus, UniProt P19490+P19491+P19492+P19493). Nature of the assay: Inhibitory activity against Ionotropic glutamate receptor AMPA using [3H]AMPA as radioligand. Format: protein-complex assay.
Assay [4] has as its target Glutamate NMDA receptor. As to the kind of experiment: Inhibitory activity against N-methyl-D-aspartate glutamate receptor using [3H]CPP as radioligand. Format: protein-complex assay.

On to `Cc1o[nH]c(=O)c1C(N)C(=O)O` (stereo not given), for which the IC50 in assay [1] and in assay [3] was over 100 µM throughout. Moreover, the EC50 in assay [2] worked out at 12 µM.
As to `NC(C(=O)O)c1cc(=O)[nH]o1` (stereo not given), the IC50 was over 100 µM in assay [1], over 100 µM in assay [4] and 76 µM in assay [3]. In assay [2], the EC50 worked out at 3.8 µM.
As for `Cc1onc(O)c1[C@H](N)C(=O)O`, the results for the IC50 in assay [1], in assay [4] and in assay [3] were over 100 µM, 61 µM and over 100 µM, respectively. Also, the EC50 in assay [2] stood at 75 µM.
Consider `Cc1onc(O)c1[C@@H](N)C(=O)O`, for which the IC50 in assay [1] was over 100 µM; in assay [4], 3.7 µM; in assay [3] it was 72 µM. The EC50 in assay [2] came to 7.3 µM.
For the compound `Cc1onc(O)c1C[C@H](N)C(=O)O` [(S)-AMPA], the EC50 in assay [2] was determined as 580 µM.
Take `CN[C@H](CC(=O)O)C(=O)O` [N-METHYL-D-ASPARTIC ACID (NMDA)]: the values for the IC50 in assay [1], in assay [4] and in assay [3] were over 100 µM, 35 µM and over 100 µM, respectively. In assay [2], the EC50 was found to be 15 µM.
